Data from PubChem BioAssay (NCI).
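48-hour exposure; five concentrations; linearly interpolated endpoints. GI50 = concentration required for 50% inhibition of growth. TGI: concentration producing complete growth inhibition.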

Key:
Assay in all cases: DTP human tumour cell line panel, 48 h
[1] = system: 786-0 renal
[2] = system: A498 renal
[3] = system: A549 NSCLC
[4] = system: ACHN renal
[5] = system: BT-549 breast
[6] = system: CAKI-1 renal
[7] = system: CCRF-CEM leukemia
[8] = system: COLO 205 colon
[9] = system: DU-145 prostate
[10] = system: EKVX NSCLC
[11] = system: HCC-2998 colon
[12] = system: HCT-116 colon
[13] = system: HCT-15 colon
[14] = system: HL-60(TB) leukemia
[15] = system: HOP-62 NSCLC
[16] = system: HOP-92 NSCLC
[17] = system: HS 578T breast
[18] = system: HT29 colon
[19] = system: IGROV1 ovarian
[20] = system: K-562 leukemia
[21] = system: KM12 colon
[22] = system: LOX IMVI melanoma
[23] = system: M14 melanoma
[24] = system: MALME-3M melanoma
[25] = system: MCF7 breast
[26] = system: MDA-MB-231 breast
[27] = system: MDA-MB-435
[28] = system: MOLT-4 leukemia
[29] = system: NCI-H226 lung
[30] = system: NCI-H23 lung
[31] = system: NCI-H522 lung
[32] = system: NCI/ADR-RES ovarian
[33] = system: OVCAR-3 ovarian
[34] = system: OVCAR-4 ovarian
[35] = system: OVCAR-5 ovarian
[36] = system: OVCAR-8 ovarian
[37] = system: PC-3 prostate
[38] = system: RPMI-8226 leukemia
[39] = system: RXF 393 renal
[40] = system: SF-268 CNS
[41] = system: SF-295 CNS
[42] = system: SF-539 CNS
[43] = system: SK-MEL-2 melanoma
[44] = system: SK-MEL-28 melanoma
[45] = system: SK-MEL-5 melanoma
[46] = system: SK-OV-3 ovarian
[47] = system: SN12C renal
[48] = system: SNB-19 CNS
[49] = system: SNB-75 CNS
[50] = system: SR leukemia
[51] = system: SW-620 colon
[52] = system: T-47D breast
[53] = system: TK-10 renal
[54] = system: U251 CNS
[55] = system: UACC-257 melanoma
[56] = system: UACC-62 melanoma
[57] = system: UO-31 renal

With `CC12CCC=CC1CCC1C2CCC2(C)C(c3ccc(=O)oc3)CCC12O` (stereo not drawn) the GI50 [1] was 0.0618 µM, the TGI [1] was 0.357 µM and the GI50 [2] was 0.0496 µM. It also gave a TGI [2] of 0.457 µM, a GI50 [3] of 0.0295 µM and a TGI [3] of 0.111 µM. It also gave a GI50 [4] of 0.0297 µM, a TGI [4] of 0.128 µM and a GI50 [5] of 0.0391 µM. For the same compound, the TGI [5] was 0.436 µM, the GI50 [6] was 0.0942 µM and the TGI [6] was 0.548 µM. The GI50 [7] was 0.0364 µM, the TGI [7] was 0.544 µM and the GI50 [8] was 0.333 µM. It also gave a TGI [8] of 1.56 µM, a GI50 [9] of 0.0553 µM and a TGI [9] of 0.165 µM. It also gave a GI50 [10] of 0.0636 µM, a TGI [10] of 0.193 µM and a GI50 [11] of 0.342 µM. The TGI [11] was 3.42 µM, the GI50 [12] was 0.0396 µM and the TGI [12] was 0.389 µM. For the same compound, the GI50 [13] was 0.0923 µM, the TGI [13] was 0.428 µM and the GI50 [14] was 0.0257 µM. For the same compound, the TGI [14] was 0.0689 µM, the GI50 [15] was 0.0511 µM and the TGI [15] was 0.21 µM. It also gave a GI50 [16] of 0.123 µM, a TGI [16] of 0.639 µM and a GI50 [17] of 0.0292 µM. It also gave a TGI [17] of 0.308 µM, a GI50 [18] of 0.0516 µM and a TGI [18] of 0.801 µM. For the same compound, the GI50 [19] was 0.0688 µM, the TGI [19] was 1.36 µM and the GI50 [20] was 0.0587 µM. For the same compound, the GI50 [21] was 0.134 µM, the TGI [21] was 1.45 µM and the GI50 [22] was 0.033 µM. The TGI [22] was 0.141 µM, the GI50 [23] was 0.154 µM and the TGI [23] was 0.519 µM. The GI50 [24] was 0.0423 µM, the TGI [24] was 0.204 µM and the GI50 [25] was 0.0766 µM. It also gave a TGI [25] of 1.18 µM, a GI50 [26] of 0.365 µM and a TGI [26] of 2.57 µM. It also gave a GI50 [27] of 0.108 µM, a TGI [27] of 0.528 µM and a GI50 [28] of 0.0282 µM. It also gave a TGI [28] of 0.0967 µM, a GI50 [29] of 0.224 µM and a TGI [29] of 0.614 µM. The GI50 [30] was 0.0492 µM, the TGI [30] was 0.302 µM and the GI50 [31] was 0.0398 µM. It also gave a TGI [31] of 0.283 µM, a GI50 [32] of 0.0475 µM and a TGI [32] of 0.247 µM. It also gave a GI50 [33] of 0.0614 µM, a TGI [33] of 0.258 µM and a GI50 [34] of 0.167 µM. For the same compound, the TGI [34] was 0.641 µM, the GI50 [35] was 0.176 µM and the TGI [35] was 0.485 µM. For the same compound, the GI50 [36] was 0.0999 µM, the TGI [36] was 0.501 µM and the GI50 [37] was 0.0534 µM. The TGI [37] was 0.317 µM, the GI50 [38] was 0.0994 µM and the TGI [38] was 0.777 µM. For the same compound, the GI50 [39] was 0.0167 µM, the TGI [39] was 0.047 µM and the GI50 [40] was 0.041 µM. For the same compound, the TGI [40] was 0.253 µM, the GI50 [41] was 0.044 µM and the TGI [41] was 0.248 µM. The GI50 [42] was 0.0531 µM, the TGI [42] was 0.18 µM and the GI50 [43] was 0.25 µM. It also gave a TGI [43] of 0.828 µM, a GI50 [44] of 0.256 µM and a TGI [44] of 1.38 µM. For the same compound, the GI50 [45] was 0.0453 µM, the TGI [45] was 0.238 µM and the GI50 [46] was 0.218 µM. It also gave a TGI [46] of 0.641 µM, a GI50 [47] of 0.0422 µM and a TGI [47] of 0.571 µM. The GI50 [48] was 0.215 µM, the TGI [48] was 1.23 µM and the GI50 [49] was 0.0282 µM. It also gave a TGI [49] of 0.164 µM, a GI50 [50] of 0.0311 µM and a TGI [50] of 0.11 µM. It also gave a GI50 [51] of 0.0558 µM, a TGI [51] of 0.33 µM and a GI50 [52] of 0.181 µM. For the same compound, the TGI [52] was 1.05 µM, the GI50 [53] was 0.0479 µM and the TGI [53] was 0.499 µM. For the same compound, the GI50 [54] was 0.131 µM, the TGI [54] was 0.419 µM and the GI50 [55] was 0.255 µM. The TGI [55] was 0.994 µM, the GI50 [56] was 0.221 µM and the TGI [56] was 0.723 µM. The GI50 [57] was 0.0647 µM and the TGI [57] was 0.189 µM.
